Measured values: patent US4735651A, “Novel phytotoxic and plant growth regulating oligopeptide” (The United States of America as represented by the …, priority 1986, dated 1988)

Columns and labels:
[1] = system: curly cress (Lepidium sativum) seedlings; assay: Root growth bioassay of germinating curly cress seedlings; format: in vivo; settings: curly cress seedling assay (C), 10^-6 M
Experimental: (§1) Applicants' preferred embodiments of this invention comprises the incorporation of structural peptide backbone changes which increase conformational constraint, and vary the orientation of amino acid side chains when constrasted with naturally occurring amino acid sequences. […] Rooth growth inhibition/promotion was measured in germinating lettuce (Lactuca sativa) cv. Northern Lakes and curly cress (Lepidium sativum) seedling assays nominally used for screening herbicidal compounds and in a wheat coleoptile assay used for generally screening biological activity. Only compounds exerting measurable biological activities at 1×10^-6 M in concentration in the lettuce and cress assays and 1×10^-3 M in the wheat coleoptile are claimed.
(§2) Aliquots of tested oligopeptide compounds of the type Formulas I-V were dissolved in ethyl acetate. One milliliter aliquots of the samples were pipetted onto a […] filter disk, dried, and placed in a Petri dish. One mL of distilled water was pipetted onto the filter paper and 15 lettuce seeds were uniformly distributed on the surface of the filter paper and allowed to imbibe in the dark at 20° to 25° C. for 24 h. The samples were subsequently placed in a growth chamber under continuous light at 28° C. for 72 h, and the root lengths were measured.
(§3) During the course of these assays, visual assessment of seedling vigor was made in addition to root length measurements. […] Assessment of phytotoxicity was not confined to assessment of the root, but included any organ of the assay species.

[2] = system: lettuce (Lactuca sativa) cv. Northern Lakes seedlings; assay: Root growth bioassay of germinating lettuce seedlings; format: in vivo; settings: lettuce seedling assay (L), 10^-6 M
Experimental: as §1, §2, §3

[3] = system: lettuce and cress seedlings; assay: Lettuce and curly cress seedling assays, visual assessment and overall activity (species not split); format: in vivo, Lactuca sativa; Lepidium sativum; design: key to Phytotoxicity: +: designated as phytotoxic if they exhibited either chlorosis and/or necrosis of tissues when compared with untreated control plants; settings: for Root growth inhibitor or promoter activity (in words): 10^-6 M; for Phytotoxicity: visual assessment of chlorosis and/or necrosis, any organ; for Phytotoxic properties observed (in words): visual assessment of seedlings
Experimental: as §1, §2, §3

[4] = system: lettuce, potato, cucumber, spinach, radish, corn, tobacco; settings: literature; cited from earlier work
[5] = system: susceptible maize hybrids; settings: literature; cited from earlier work

## CCN(C(=O)[C@@H](CC(C)C)NC(=O)OC(C)(C)C)/C(=C\c1ccccc1)C(=O)NCC(=O)OC [Compound 7, Boc-D-Leu-N(C2 H5)Δ^z Phe-Gly-OMe]
[1]
  % Root Growth Inhibitor (inhibition): 80%
[2]
  % Root Growth Inhibitor (inhibition): 50%

## COC(=O)CNC(=O)/C(=C/c1ccccc1)N(C)C(=O)[C@H](CC(C)C)NC(=O)OC(C)(C)C [Compound 8, Boc-Leu-N(CH3)Δ^z Phe-Gly-OMe]
[1]
  % Root Growth Inhibitor (inhibition): 50%
[2]
  % Root Growth Inhibitor (inhibition): 60%

## COC(=O)CNC(=O)/C(=C/c1ccccc1)NC(=O)[C@@H](C)NC(=O)OC(C)(C)C [Compound 10, Boc-D-Ala-Δ^z Phe-Gly-OMe]
[1]
  % Root Growth Inhibitor (inhibition): 20%
[2]
  % Root Growth Inhibitor (inhibition): 40%

## COC(=O)CNC(=O)/C(=C/c1ccccc1)N(C)C(=O)[C@@H](NC(=O)OC(C)(C)C)C(C)C [Compound 12, Boc-Val-N(CH3)Δ^z Phe-Gly-OMe]
[1]
  % Root Growth Inhibitor (inhibition): 85%

## CC(C)C[C@@H]1NC(=O)[C@H](C)N(C)C(=O)CNC(=O)/C(=C/c2ccccc2)N(C)C1=O [Compound 13, cyclo [L-Leucyl-N-methyl-(Z)-dehydrophenylalanyl-glycyl-N-methyl-L-alnyl]]
[3]
  Root growth inhibitor or promoter activity (in words): Not active as a inhibitor
  Phytotoxicity: +
  Phytotoxic properties observed (in words): induces chlorosis in lettuce seedlings
[3]; listed as tentoxin
  Root growth inhibitor or promoter activity (in words): none of the plant growth inhibiting or promoting properties
[4]
  Chlorosis induction: induces chlorosis in lettuce, potato, cucumber and spinach but not in radish, corn and some species of tobacco

## C[C@@H]1NC(=O)[C@H]2CCCN2C(=O)[C@H](CCCCCC(=O)[C@@H]2CO2)NC(=O)[C@@H](C)NC1=O [HC toxin]
[5]
  Root growth inhibition: root growth inhibition of susceptible maize hybrids

## Boc-N(CH3)-Ala-Leu-N(CH3)Δ^z Phe-Gly-OMe [Compound 5]
[3]
  Root growth inhibitor or promoter activity (in words): active
  Phytotoxicity: +
  Phytotoxic properties observed (in words): root growth inhibition leading to early mortality
